*1 amine or outer side, *2 acyl side, *3 side chain or, on linkers, in order; H or OH if unused. Where a SMILES comes first, the peptide text is derived from it. Side-chain parts run from the residue outwards. [ ]: non-standard residue; d: D form. The star is where a group is joined. Isobutyryl(2-(3-CN-5-F-Ph)) = CC(C)(C(=O)*)c1cc(F)cc(C#N)c1; C20 diacid = O=C(O)CCCCCCCCCCCCCCCCCCC(=O)*; γGlu = O=C(O)[C@H](CCC(=O)[*:2])N[*:1]; X21 = O=C(C(CN[*:1])C(F)(F)F)[*:2]; NH(4-F-phenyl) = Fc1ccc(N*)cc1; X33 = CCC(CC)(C(=O)*)c1ccccc1; β3hD = NC(CC(=O)O)CC(=O)O; AEEA = NCCOCCOCC(=O)O; Aib = CC(C)(N)C(=O)O; CO = O=C([*:1])[*:2]; GABA = NCCCC(=O)O; βAla = NCCC(=O)O
Columns and labels:
Assay type in all cases: cell-based
GLP-1 receptor [1] = target: T1, GLP-1 receptor (Homo sapiens, UniProt P43220); assay: HitHunter cAMP assay, GLP-1 receptor; conditions: for EC50: CHO cells stably expressing human GLP-1 receptor, cAMP accumulation, 30 min, read-out: EC50 GLP-1R; for Emax: CHO cells, cAMP, normalized to maximum signal from GLP-1 (high) and DMSO (low), read-out: Emax GLP-1R
GIP receptor [2] = target: T2, GIP receptor (Homo sapiens, UniProt P48546); assay: HitHunter cAMP assay, GIP receptor; conditions: for EC50: CHO cells stably expressing GIP receptor, cAMP accumulation, 30 min, read-out: EC50 GIP-1R; for Emax: CHO cells, cAMP, normalized to maximum signal from GIP (high) and DMSO (low), read-out: Emax GIP-1R
T2 sequence (P48546 22-466): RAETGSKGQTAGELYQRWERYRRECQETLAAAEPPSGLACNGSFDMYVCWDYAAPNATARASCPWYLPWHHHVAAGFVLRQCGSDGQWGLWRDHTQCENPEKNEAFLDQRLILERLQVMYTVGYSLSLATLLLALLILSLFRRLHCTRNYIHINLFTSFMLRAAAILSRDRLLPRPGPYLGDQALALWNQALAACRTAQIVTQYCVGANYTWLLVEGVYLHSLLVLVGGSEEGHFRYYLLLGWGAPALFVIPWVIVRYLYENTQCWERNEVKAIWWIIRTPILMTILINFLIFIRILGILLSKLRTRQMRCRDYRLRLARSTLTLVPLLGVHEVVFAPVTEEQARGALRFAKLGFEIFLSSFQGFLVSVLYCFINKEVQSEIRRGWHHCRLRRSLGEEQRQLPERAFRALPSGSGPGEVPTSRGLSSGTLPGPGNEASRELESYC

GIP receptor [3] = target: T2, GIP receptor; assay: PathHunter β-arrestin assay, GIP receptor; parameters: host or cells: PathHunter CHO-K1 GIPR β-Arrestin Cell Line; conditions: β-arrestin-2 recruitment, PathHunter CHO-K1 GIPR β-Arrestin Cell Line, 90 min at 37° C.; normalized to GIP; read-out: GIPR β Arrestin EC50
GLP-1 receptor [4] = target: T1, GLP-1 receptor; assay: PathHunter β-arrestin assay, GLP-1 receptor; parameters: host or cells: PathHunter CHO-K1 GLP1R β-Arrestin Cell Line; conditions: β-arrestin-2 recruitment, PathHunter CHO-K1 GLP1R β-Arrestin Cell Line, 90 min at 37° C.; normalized to GLP-1; read-out: GLP-1R β Arrestin EC50

T1 sequence (P43220 24-463): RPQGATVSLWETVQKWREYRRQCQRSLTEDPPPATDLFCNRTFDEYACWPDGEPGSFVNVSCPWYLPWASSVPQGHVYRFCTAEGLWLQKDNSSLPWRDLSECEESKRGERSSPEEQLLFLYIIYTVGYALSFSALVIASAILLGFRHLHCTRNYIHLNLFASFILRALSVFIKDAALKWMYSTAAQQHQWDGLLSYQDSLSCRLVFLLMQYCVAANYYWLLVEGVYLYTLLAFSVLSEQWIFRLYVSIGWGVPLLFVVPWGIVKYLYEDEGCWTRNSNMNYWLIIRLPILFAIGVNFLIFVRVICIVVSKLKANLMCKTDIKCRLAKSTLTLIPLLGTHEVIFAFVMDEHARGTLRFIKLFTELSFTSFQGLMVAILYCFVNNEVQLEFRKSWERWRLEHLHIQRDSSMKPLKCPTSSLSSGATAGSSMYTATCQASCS

`CC[C@H](C)[C@H](NC(=O)[C@H](CC(C)C)NC(=O)[C@H](Cc1c[nH]c2ccccc12)NC(=O)[C@H](CCC(N)=O)NC(=O)[C@@H](NC(=O)[C@H](Cc1ccccc1)NC(=O)[C@H](C)NC(=O)[C@H](CCCCNC(=O)COCCOCCNC(=O)COCCOCCNC(=O)CC[C@H](NC(=O)CCCCCCCCCCCCCCCCCCC(=O)O)C(=O)O)NC(=O)[C@H](CCC(N)=O)NC(=O)[C@H](C)NC(=O)[C@@H](NC(=O)[C@H](CCCCN)NC(=O)[C@H](CC(=O)O)NC(=O)[C@H](CC(C)C)NC(=O)C(C)(C)NC(=O)[C@@H](NC(=O)[C@H](CO)NC(=O)[C@H](Cc1ccc(O)cc1)NC(=O)[C@H](CC(=O)O)NC(=O)[C@H](CO)NC(=O)[C@@H](NC(=O)[C@H](Cc1ccccc1)NC(=O)[C@@H](NC(=O)CNC(=O)[C@H](CCC(=O)O)NC(=O)CCCNC(=O)CNC(=O)Nc1ccc(F)cc1)[C@@H](C)O)[C@@H](C)O)[C@@H](C)CC)[C@@H](C)CC)C(C)C)C(=O)N[C@@H](C)C(=O)NCC(=O)NCC(=O)N1CCC[C@H]1C(=O)N[C@@H](CO)C(=O)N[C@@H](CO)C(=O)NCC(=O)N[C@@H](C)C(=O)N1CCC[C@H]1C(=O)N1CCC[C@H]1C(=O)N1CCC[C@H]1C(=O)N[C@@H](CO)C(N)=O` [Compound 268] ({NH(4-F-phenyl)-CO}-G[GABA]EGTFTSDYSI[Aib]LDKIAQK([AEEA-AEEA-γGlu-C20 diacid])AFVQWLIAGGPSSGAPPPS-NH2) was tested, and the EC50 (GLP-1 receptor [1]) was 1 to 10 nM, the Emax (GLP-1 receptor [1]) was 95% and the EC50 (GIP receptor [2]) was 1 to 10 nM. For the same molecule, the Emax (GIP receptor [2]) was 103%, the EC50 (GIP receptor [3]) was > 1000 nM and the EC50 (GLP-1 receptor [4]) was > 1000 nM.

`CC[C@H](C)[C@H](NC(=O)[C@H](CC(C)C)NC(=O)[C@H](Cc1c[nH]c2ccccc12)NC(=O)[C@H](CCC(N)=O)NC(=O)[C@@H](NC(=O)[C@H](Cc1ccccc1)NC(=O)[C@H](C)NC(=O)[C@H](CCCCNC(=O)COCCOCCNC(=O)COCCOCCNC(=O)CC[C@H](NC(=O)CCCCCCCCCCCCCCCCCCC(=O)O)C(=O)O)NC(=O)[C@H](CCC(N)=O)NC(=O)[C@H](C)NC(=O)[C@@H](NC(=O)[C@H](CCCCN)NC(=O)[C@H](CC(=O)O)NC(=O)[C@H](CC(C)C)NC(=O)C(C)(C)NC(=O)[C@@H](NC(=O)[C@H](CO)NC(=O)[C@H](Cc1ccc(O)cc1)NC(=O)[C@H](CC(=O)O)NC(=O)[C@H](CO)NC(=O)[C@@H](NC(=O)[C@H](Cc1ccccc1)NC(=O)[C@@H](NC(=O)CNC(=O)C[C@H](CC(=O)O)NC(=O)CCNC(=O)C(C)(C)c1cc(F)cc(C#N)c1)[C@@H](C)O)[C@@H](C)O)[C@@H](C)CC)[C@@H](C)CC)C(C)C)C(=O)N[C@@H](C)C(=O)NCC(=O)NCC(=O)N1CCC[C@H]1C(=O)N[C@@H](CO)C(=O)N[C@@H](CO)C(=O)NCC(=O)N[C@@H](C)C(=O)N1CCC[C@H]1C(=O)N1CCC[C@H]1C(=O)N1CCC[C@H]1C(=O)N[C@@H](CO)C(N)=O` [Compound 115] ({Isobutyryl(2-(3-CN-5-F-Ph))-βAla}-[β3hD]GTFTSDYSI[Aib]LDKIAQK([AEEA-AEEA-γGlu-C20 diacid])AFVQWLIAGGPSSGAPPPS-NH2) gave an EC50 (GLP-1 receptor [1]) of 1 to 10 nM, an Emax (GLP-1 receptor [1]) of 120% and an EC50 (GIP receptor [2]) of 100 to 1000 nM. For the same molecule, the Emax (GIP receptor [2]) was 111%, the EC50 (GIP receptor [3]) was > 1000 nM and the EC50 (GLP-1 receptor [4]) was > 1000 nM.

Work on `CC[C@H](C)[C@H](NC(=O)[C@H](CC(C)C)NC(=O)[C@H](Cc1c[nH]c2ccccc12)NC(=O)[C@H](CCC(N)=O)NC(=O)[C@@H](NC(=O)[C@H](Cc1ccccc1)NC(=O)[C@H](C)NC(=O)[C@H](CCCCNC(=O)COCCOCCNC(=O)COCCOCCNC(=O)CC[C@H](NC(=O)CCCCCCCCCCCCCCCCCCC(=O)O)C(=O)O)NC(=O)[C@H](CCC(N)=O)NC(=O)[C@H](C)NC(=O)[C@@H](NC(=O)[C@H](CCCCN)NC(=O)[C@H](CC(=O)O)NC(=O)[C@H](CC(C)C)NC(=O)C(C)(C)NC(=O)[C@@H](NC(=O)[C@H](CO)NC(=O)[C@H](Cc1ccc(O)cc1)NC(=O)[C@H](CC(=O)O)NC(=O)[C@H](CO)NC(=O)[C@@H](NC(=O)[C@H](Cc1ccccc1)NC(=O)[C@@H](NC(=O)CNC(=O)[C@H](CCC(=O)O)NC(=O)C(CNC(=O)C(C)(C)c1cc(F)cc(C#N)c1)C(F)(F)F)[C@@H](C)O)[C@@H](C)O)[C@@H](C)CC)[C@@H](C)CC)C(C)C)C(=O)N[C@@H](C)C(=O)NCC(=O)NCC(=O)N1CCC[C@H]1C(=O)N[C@@H](CO)C(=O)N[C@@H](CO)C(=O)NCC(=O)N[C@@H](C)C(=O)N1CCC[C@H]1C(=O)N1CCC[C@H]1C(=O)N1CCC[C@H]1C(=O)N[C@@H](CO)C(N)=O` (stereo partly drawn) [Compound 165] ({Isobutyryl(2-(3-CN-5-F-Ph))}-[X21]EGTFTSDYSI[Aib]LDKIAQK([AEEA-AEEA-γGlu-C20 diacid])AFVQWLIAGGPSSGAPPPS-NH2) yielded an EC50 (GLP-1 receptor [1]) of 10 to 100 nM, an Emax (GLP-1 receptor [1]) of 111% and an EC50 (GIP receptor [2]) of 100 to 1000 nM. The Emax (GIP receptor [2]) was 92%, the EC50 (GIP receptor [3]) was > 1000 nM and the EC50 (GLP-1 receptor [4]) was > 1000 nM.

Molecule `CC[C@H](C)[C@H](NC(=O)[C@H](CC(C)C)NC(=O)[C@H](Cc1c[nH]c2ccccc12)NC(=O)[C@H](CCC(N)=O)NC(=O)[C@@H](NC(=O)[C@H](Cc1ccccc1)NC(=O)[C@H](C)NC(=O)[C@H](CCCCNC(=O)COCCOCCNC(=O)COCCOCCNC(=O)CC[C@H](NC(=O)CCCCCCCCCCCCCCCCCCC(=O)O)C(=O)O)NC(=O)[C@H](CCC(N)=O)NC(=O)[C@H](C)NC(=O)[C@@H](NC(=O)[C@H](CCCCN)NC(=O)[C@H](CC(=O)O)NC(=O)[C@H](CC(C)C)NC(=O)C(C)(C)NC(=O)[C@@H](NC(=O)[C@H](CO)NC(=O)[C@H](Cc1ccc(O)cc1)NC(=O)[C@H](CC(=O)O)NC(=O)[C@H](CO)NC(=O)[C@@H](NC(=O)[C@H](Cc1ccccc1)NC(=O)[C@@H](NC(=O)CNC(=O)[C@H](CCC(=O)O)NC(=O)CCNC(=O)C(CC)(CC)c1ccccc1)[C@@H](C)O)[C@@H](C)O)[C@@H](C)CC)[C@@H](C)CC)C(C)C)C(=O)N[C@@H](C)C(=O)NCC(=O)NCC(=O)N1CCC[C@H]1C(=O)N[C@@H](CO)C(=O)N[C@@H](CO)C(=O)NCC(=O)N[C@@H](C)C(=O)N1CCC[C@H]1C(=O)N1CCC[C@H]1C(=O)N1CCC[C@H]1C(=O)N[C@@H](CO)C(N)=O` [Compound 218] ({X33-βAla}-EGTFTSDYSI[Aib]LDKIAQK([AEEA-AEEA-γGlu-C20 diacid])AFVQWLIAGGPSSGAPPPS-NH2) has an EC50 (GLP-1 receptor [1]) of 0.1 to 1 nM, an Emax (GLP-1 receptor [1]) of 103% and an EC50 (GIP receptor [2]) of 0.1 to 1 nM. The Emax (GIP receptor [2]) was 100%, the EC50 (GIP receptor [3]) was < 1000 nM and the EC50 (GLP-1 receptor [4]) was > 1000 nM.

With `CC[C@H](C)[C@H](NC(=O)[C@H](CC(C)C)NC(=O)[C@H](Cc1c[nH]c2ccccc12)NC(=O)[C@H](CCC(N)=O)NC(=O)[C@@H](NC(=O)[C@H](Cc1ccccc1)NC(=O)[C@H](C)NC(=O)[C@H](CCCCNC(=O)COCCOCCNC(=O)COCCOCCNC(=O)CC[C@H](NC(=O)CCCCCCCCCCCCCCCCCCC(=O)O)C(=O)O)NC(=O)[C@H](C)NC(=O)[C@H](C)NC(=O)[C@@H](NC(=O)[C@H](CCCCN)NC(=O)[C@H](CC(=O)O)NC(=O)[C@H](CC(C)C)NC(=O)C(C)(C)NC(=O)[C@@H](NC(=O)[C@H](CO)NC(=O)[C@H](Cc1ccc(O)cc1)NC(=O)[C@H](CC(=O)O)NC(=O)[C@H](CO)NC(=O)[C@@H](NC(=O)[C@H](Cc1ccccc1)NC(=O)[C@@H](NC(=O)CNC(=O)[C@H](CCC(=O)O)NC(=O)CCNC(=O)C(C)(C)c1cc(F)cc(C#N)c1)[C@@H](C)O)[C@@H](C)O)[C@@H](C)CC)[C@@H](C)CC)C(C)C)C(=O)N[C@@H](C)C(=O)NCC(=O)NCC(=O)N1CCC[C@H]1C(=O)N[C@@H](CO)C(=O)N[C@@H](CO)C(=O)NCC(=O)N[C@@H](C)C(=O)N1CCC[C@H]1C(=O)N1CCC[C@H]1C(=O)N1CCC[C@H]1C(=O)N[C@@H](CO)C(N)=O` [Compound 183] ({Isobutyryl(2-(3-CN-5-F-Ph))-βAla}-EGTFTSDYSI[Aib]LDKIAAK([AEEA-AEEA-γGlu-C20 diacid])AFVQWLIAGGPSSGAPPPS-NH2) the EC50 (GLP-1 receptor [1]) was 0.1 to 1 nM, the Emax (GLP-1 receptor [1]) was 96% and the EC50 (GIP receptor [2]) was 10 to 100 nM. For the same molecule, the Emax (GIP receptor [2]) was 95%, the EC50 (GIP receptor [3]) was > 1000 nM and the EC50 (GLP-1 receptor [4]) was > 1000 nM.

From patent US12281149B2, “Modulators of G-protein coupled receptors” (priority 2021, dated 2025)
